Entries after “also recorded” stand apart in the source; their conditions may differ.

We go through one molecule from patent US20240058315A1, “Pyridine and Pyrazine derivative for the Treatment of CF, COPD, and Bronchiectasis” (NOVARTIS AG, priority 2019, published 2024).

One data set addresses ΔF508-CFTR (Homo sapiens (Human), UniProt P13569, DEL508-508). The experiment in a line: CFTR potentiator assays (membrane potential, IonWorks Quattro, Ussing chamber ion transport). In kind it is cell-based. To be noted: CFTR EC50 in 'the data measurements described above'; which of the potentiator assays is not stated. An excerpt:
CFTR activity can be quantified by measuring the transmembrane potential. The means for measuring the transmembrane potential in a biological system can employ a number of methods including electrophysiological and optical fluorescence-based membrane potential assays.
The optical membrane potential assay utilises a negatively charged potentiometric dye, such as the FLIPR membrane potential dye (FMP) (see Baxter D F, Kirk M, Garcia A F, Raimondi A, Holmqvist M H, Flint K K, Bojanic D, Distefano P S, Curtis R, Xie Y. ‘A novel membrane potential-sensitive fluorescent dye improves cell-based assays for ion channels.’ J Biomol Screen. 2002 February; 7(1):79-85) which when extracellular is bound to a quenching agent.
Upon cellular depolarisation the negatively charged dye redistributes to the intracellular compartment, unbinding from the membrane impermeant quench agent, yielding an increase in fluorescence. This change in fluorescence is proportional to the change in transmembrane potential which can result from the activity of CFTR. The changes in fluorescence can be monitored in real time by an appropriately equipped fluorescence detector such as the FLIPR (fluorometric imaging plate reader) in 96 or 384-well microtitre plates.
Chinese hamster ovary (CHO) cells stably expressing the AF508-CFTR channel were used for membrane potential experiments. Cells were maintained at 37° C. in 5% v/v CO2 at 100% humidity in Modified Eagles medium (MEM) supplemented with 8% v/v foetal calf serum, 100 μg/ml methotrexate and 100 U/ml penicillin/streptomycin. Cells were grown in 225 cm^2 tissue culture flasks. For membrane potential assays cells were seeded into 96 well plates at 40,000 cells per well, allowed to adhere and then maintained at 26° C. for 48 h to facilitate channel insertion.
The membrane potential screening assay utilised a low chloride ion containing extracellular solution (˜5 mM) combined with a double addition protocol. The first addition was of buffer with or without test compound followed 5 minutes later by an addition of forskolin (1-20 μM)—this protocol favours maximum chloride efflux in response to ΔF508-CFTR activation. The ΔF508-CFTR mediated chloride ion efflux leads to a membrane depolarisation which is optically monitored by the FMP dye.
Low chloride extracellular (mM): 120 Na-gluconate, 1.2 CaCl2), 3.3 KH2PO4, 0.8 K2HPO4, 1.2 MgCl2, 10.0 D-glucose, 20.0 HEPES, pH 7.4 with NaOH FMP dye: made up as per manufacturers' instructions in low chloride extracellular solution detailed above, at 10× final concentration, and stored as 1 mL aliquots at −20° C.
CFTR activity can also be quantified electrophysiologically using the whole-cell configuration of the patch clamp technique (Hamill et al Pflugers Archive 1981). This assay directly measures the currents associated with chloride flow through CFTR channels whilst either maintaining or adjusting the transmembrane voltage. This assay can use either single glass micropipettes or parallel planar arrays to measure CFTR activity from native or recombinant cell systems. Currents measured using parallel planar arrays can be quantified using an appropriately equipped instrument such as the IonWorks Quattro (Molecular Devices) or the Qpatch (Sophion). The Quattro system can measure CFTR currents from either a single cell per recording well (HT configuration) or alternatively from a population of 64 cells per well (Population Patch Clamp PPC) (Finkel A, Wittel A, Yang N, Handran S, Hughes J, Costantin J. ‘Population patch clamp improves data consistency and success rates in the measurement of ionic currents.’ J Biomol Screen. 2006 August; 11(5):488-96).
Chinese hamster ovary (CHO) cells stably expressing the ΔF508-CFTR channel were used for IonWorks Quattro experiments. […]

In another data set the test system is OAT1/3. The experiment in a line: in vitro inhibition of OAT1/3. In kind it is in vitro ADME.
The next data set relates to CFTR. The experiment in a line: COPD PoC study (study 2): sweat chloride. In kind it is in vivo, human. To be noted: Day 29, 300 mg bid 28 days, 90% CI −11.6, 1.25, p-value=0.091. The protocol: (§1) Patients were randomized and stratified by smoking status (former vs current smokers). The double-blind placebo-controlled treatment period was 28 days (Day 1 to Day 28) and included visits on Days 1, 14 and 28. Eligible patients were randomized in a 2:1 ratio to receive 300 mg b.i.d. of Compound A or matching placebo for 28 consecutive days. Of note, the first 4 patients enrolled randomized in this study received 450 mg b.i.d. of Compound A or placebo, prior to an amendment reducing the dose and thereafter the dose was reduced to 300 mg b.i.d. of Compound A. The single-blind placebo-controlled follow-up period was 28 days. The follow-up period included a visit on Day 29 for key primary and secondary objective efficacy assessments, weekly follow-up contact via telephone, and an End-of-Study (EOS) visit on Day 56.

Data set [1] relates to Pseudomonas aeruginosa Biotype 2 - dry. The experiment in a line: Phase II study in COPD patients: sputum microbiology, Pseudomonas aeruginosa Biotype 2 - dry. In kind it is in vivo. On the procedure: as §1
Spontaneous sputum was collected from patients and used to quantify colony forming units (CFUs) as a potential efficacy marker. The collected sputum samples were cultured for the following specific bacteria: Haemophilus parainfluenza, Haemophilus influenza, Pseudomonas aeruginosa, Moraxella, and Streptococcus pneumonia. In the event of bacterial growth for one or more of the above five pathogens, then the test result was reported, including the quantitative growth. In order to be included in the sputum analysis, a patient must have provided a sufficient sputum sample at baseline and at least one other visit (Day 14, Day 29 or EOS).
A decrease in airway bacterial colonization as detected in the sputum is considered improvement. In Table 4, the frequency (n, %) of patients was reported by treatment with Compound A and type of bacteria. Within each treatment group, the percentage was calculated as number of patients who were colonized with bacteria divided with total number of patients who produced a sputum sample at that time point.

A further data set relates to COPD patients. The experiment in a line: COPD PoC study (study 2): lung function (LCI, FEV1, spirometry). In kind it is in vivo, human. On the procedure:
as §1

Sequence of ΔF508-CFTR (P13569 other isoform, or with tags, fused parts or gaps del F508-F508): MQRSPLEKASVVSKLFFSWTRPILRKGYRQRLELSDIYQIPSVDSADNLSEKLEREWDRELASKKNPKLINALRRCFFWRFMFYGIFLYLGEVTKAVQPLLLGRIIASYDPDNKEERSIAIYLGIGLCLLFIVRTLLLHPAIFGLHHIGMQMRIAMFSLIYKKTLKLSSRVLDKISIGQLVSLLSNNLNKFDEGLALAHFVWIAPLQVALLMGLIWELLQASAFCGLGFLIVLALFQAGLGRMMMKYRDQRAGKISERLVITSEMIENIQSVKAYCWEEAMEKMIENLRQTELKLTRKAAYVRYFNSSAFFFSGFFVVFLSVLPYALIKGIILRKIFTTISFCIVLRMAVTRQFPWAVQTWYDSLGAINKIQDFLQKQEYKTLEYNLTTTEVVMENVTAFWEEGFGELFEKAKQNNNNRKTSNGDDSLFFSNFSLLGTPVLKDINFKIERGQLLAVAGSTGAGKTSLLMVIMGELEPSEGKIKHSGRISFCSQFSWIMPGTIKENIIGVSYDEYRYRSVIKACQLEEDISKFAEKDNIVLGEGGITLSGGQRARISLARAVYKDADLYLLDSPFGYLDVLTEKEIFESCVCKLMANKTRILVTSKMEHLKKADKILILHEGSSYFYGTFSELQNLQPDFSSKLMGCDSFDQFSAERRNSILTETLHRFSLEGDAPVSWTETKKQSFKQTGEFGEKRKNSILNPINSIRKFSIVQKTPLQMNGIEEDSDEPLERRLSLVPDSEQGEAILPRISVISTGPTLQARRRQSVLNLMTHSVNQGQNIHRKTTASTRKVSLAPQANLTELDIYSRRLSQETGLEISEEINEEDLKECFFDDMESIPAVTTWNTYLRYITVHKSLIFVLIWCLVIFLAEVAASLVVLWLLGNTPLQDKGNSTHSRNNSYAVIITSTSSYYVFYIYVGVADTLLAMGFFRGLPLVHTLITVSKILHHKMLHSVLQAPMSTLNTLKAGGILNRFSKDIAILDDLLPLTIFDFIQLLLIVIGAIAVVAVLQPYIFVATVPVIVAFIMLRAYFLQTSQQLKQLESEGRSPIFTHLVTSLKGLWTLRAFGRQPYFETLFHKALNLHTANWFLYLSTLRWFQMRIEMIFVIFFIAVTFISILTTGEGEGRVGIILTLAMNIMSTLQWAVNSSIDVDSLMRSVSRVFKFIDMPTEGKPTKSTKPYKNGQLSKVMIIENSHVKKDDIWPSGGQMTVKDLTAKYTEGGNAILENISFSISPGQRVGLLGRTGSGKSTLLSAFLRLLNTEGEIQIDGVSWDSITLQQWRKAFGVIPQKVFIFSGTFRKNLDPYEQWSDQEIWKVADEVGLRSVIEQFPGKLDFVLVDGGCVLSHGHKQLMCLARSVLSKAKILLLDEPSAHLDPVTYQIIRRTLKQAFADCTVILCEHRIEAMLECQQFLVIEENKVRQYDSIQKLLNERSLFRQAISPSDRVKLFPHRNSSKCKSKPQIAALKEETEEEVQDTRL

As for `COc1nc(C(=O)NC[C@](C)(O)C(F)(F)F)c(N)cc1C(F)(F)F` (single isomer, unassigned) [Example 5], the 50% effective concentration (EC50) on ΔF508-CFTR came out at 0.05 µM. Also, the “inhibition of OAT1/3” value with OAT1/3 is recorded as “Weak in vitro inhibition”. The “estimated difference (Compound A - placebo) in mean change from baseline sweat chloride” value with CFTR is -5.19 mmol/L. The “patients colonized, n (%)” value in data set [1] (Baseline) is recorded as 2 (4.4) n (%); in data set [1] (D14), 4 (9.3) n (%); in data set [1] (D29), 2 (4.8) n (%); in data set [1] (EOS), 1 (2.4) n (%). The “LCI, pre-bronchodilator FEV1 and post-bronchodilator FEV1, mean change from baseline” value in the data set on COPD patients (Day 14, COPD patients) is “evidence of improvement”. Further, the “pre- and post-bronchodilator FVC, IC, % FEF25-75 compared to placebo” value with COPD patients (Day 29, 300 mg bid 28 days, COPD patients) is recorded as “supportive evidence of improvement”. Moreover, the “estimated difference (Compound A - placebo) in mean change from baseline post-bronchodilator FEV1” value in the data set on COPD patients (Day 29, 300 mg bid 28 days, COPD, 90% CI −0.02, 0.14, p-value=0.100) is 0.06 L. In addition, in the data set on COPD patients (Day 29, 300 mg bid 28 days, COPD, 90% CrI −0.03, 0.13, 84% probability better than placebo), the “posterior difference (Compound A - placebo) in mean change from baseline pre-bronchodilator FEV1” value was 0.05 L. Besides, in the data set on COPD patients (Day 29, 300 mg bid 28 days, COPD, 90% CrI −0.24, 0.79, 19% probability better than placebo), the “posterior difference (Compound A - placebo) in mean change from baseline LCI” value amounted to 0.28. Further, in the data set on COPD patients (EOS, 28 days after the last dose, COPD patients), the “efficacy results for FEV1, sweat chloride, fibrinogen, spirometry and lung volume measurements” value was “returned to baseline”. Also, the “lung function (FEV1)” value in the data set with COPD patients (patients with COPD, four weeks of treatment, listed as Compound A) was “significant improvement; also recorded: statistically important improvement”.

The EC50 is the concentration at which the effect is half-maximal.
